# Experimental data as given in patent US20200282101A1, “BIODEGRADABLE TUMOR SEALANT” (MediGear International Corporation, priority 2015, published 2020).
# Experiments:
# [1] = Stability of liquid crystal gelatinous composition in human serum; format: in vitro ADME
# Procedure: Approximately 100 μL of mono-O-(5,9,13-trimethyltetradeca-4-enoyl)glycerol or approximately 100 μL each of mixed solutions of mono-O-(5,9,13-trimethyltetradeca-4-enoyl)glycerol and Lipiodol at a weight ratio of 10:1, 10:2 or 10:3 were respectively added to vials containing 2 mL of human serum (Human OTC Serum, Access Biologicals). After gently shaking each vial to cause the formation of a gelatinous composition, the vials were allowed to stand undisturbed in a water bath at 37° C. followed by observing immediately thereafter, 10 hours later and 24 hours later.
# FIG. 13 depicts captured images indicating changes over time in samples consisting of approximately 100 μL of mono-O-(5,9,13-trimethyltetradeca-4-enoyl)glycerol.
# [2] = Viscosity measurement of the synthesized compound; format: physicochemical; conditions: shear rate: 92 1/s
# Excerpt: The results of measuring the ^1H-NMR spectrum and viscosity of the resulting compound were as shown below.
# Viscosity: 0.48 Pa·s (shear rate: 92 1/s)
# [3] = Formation of gelatinous composition on mixing with physiological saline; format: physicochemical; conditions: 50% by weight or more of physiological saline, separated saline removed
# Procedure: An aqueous medium in the form of a 50% by weight or more of physiological saline was added to mono-O-(5,9,13-trimethyltetradeca-4-enoyl)glycerol followed by carrying out a mixing procedure and removing the separated physiological saline.
# Mono-O-(5,9,13-trimethyltetradeca-4-enoyl)glycerol and a contrast agent in the form of Lipiodol were mixed at mixing ratios of 10:5, 70:30, 10:3, 80:20, 10:2, 90:10 and. 10:1. An aqueous medium in the form of 50% by weight or more of physiological saline was added to each mixture followed by carrying out a mixing procedure and removing the separated physiological saline to respectively obtain mixtures.
# [4] = Liquid crystal structure analysis by small-angle X-ray scattering (SAXS); format: physicochemical; conditions: atmospheric pressure
# Procedure: The liquid crystal structure of the aforementioned gelatinous composition was analyzed by small-angle X-ray scattering (SAXS) using the NANO Viewer nanoscale X-ray structural evaluation system (Rigaku). As a result of measuring the aforementioned gelatinous composition packed into pinhole slits under atmospheric pressure, a graph of SAXS intensity distribution (FIG. 3(1)) and peak search results (FIG. 3(2)) were obtained.
# The liquid crystal structures of the aforementioned gelatinous compositions were analyzed by small-angle X-ray scattering (SAXS) using the SmartLab high-luminance in-plane X-ray diffraction system (Rigaku). The aforementioned gelatinous composition packed into pinhole slits were measured under atmospheric pressure.
# Liquid crystal structure of the aforementioned emulsion was analyzed by small-angle X-ray scattering (SAXS) using the NANO Viewer nanoscale X-ray structural evaluation system (Rigaku). As a result of introducing the emulsion into a capillary tube under atmospheric pressure and measuring with the system at reduced pressure (although the sample per se was at atmospheric pressure), a graph of SAXS intensity distribution (FIG. 5(1)) and peak search results (FIG. 5(2)) were obtained.
# The aforementioned emulsion was measured by SAXS in the same manner as Example 4. […]
compound,measurement,setting,value
"CC(=CCCC(=O)OCC(O)CO)CCCC(C)CCCC(C)C (stereo not drawn) [Example 1, Mono-O-(5,9,13-trimethyltetradeca-4-enoyl)glycerol]",Change of human serum with passage of time,"[1]; approx. 100 μL in 2 mL human serum, 37° C., up to 24 hours",gradually became cloudy
same,Change of gelatinous composition in distilled water instead of human serum,"[1]; distilled water, within 24 hours",no change in the gelatinous composition
same,Observation in human serum 10 hours after addition,"[1]; human serum, 37° C., 10 hours",Cloudiness can be seen to have progressed
same,Observation in human serum 24 hours after addition,"[1]; human serum, 37° C., 24 hours","Cloudiness had progressed even further, although the gelatinous composition remained"
same,Main eluted components by TLC analysis,"[1]; human serum, 37° C., 24 hours after addition","mono-O-(5,9,13-trimethyltetradeca-4-enoyl)glycerol and (5,9,13-trimethyl-4-tetradecanoic)carboxylate obtained as a result of hydrolysis"
same,Observation in human serum immediately after addition,"[1]; human serum, 37° C., immediately after addition",a gelatinous composition formed and the human serum remained clear
same,Viscosity,[2],0.48 Pa·s
same,Appearance of composition after mixing with physiological saline,[3],"cloudy to colorless, clear gel"
same,Liquid crystal structure (SAXS),[4],inverse hexagonal liquid crystal
